Here are results for 25 compounds from patent US7902252B2, “Inhibitors of D-amino acid oxidase” (Sepracor, Inc., priority 2007, dated 2011).

The subject of assay [1] is D-serine levels in the cerebellum. The experiment in a line: In vivo elevation of D-serine levels in the cerebellum.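 Also: Cutoffs are cerebellum D-serine in nmol/g wet tissue weight.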 Also on record: species or system Mice (C57BL/6). The settings on record: mice, intraperitoneal. On the procedure:
[…] Animals are sacrificed at either 2 or 6 h post compound administration with an N=3 per time point. At sacrifice, trunk blood is collected into tubes containing potassium EDTA, which are then centrifuged to permit isolation of plasma. The cerebellum is dissected from each animal. Plasma and cerebellum samples are stored at −80° C. until samples are analyzed (LC/MS/MS).

Another assay addresses Human DAAO (Homo sapiens, UniProt P14920). Put plainly: D-Amino Acid Oxidase enzyme assay (D-serine, horseradish peroxidase/Amplex Red coupled fluorescence). In kind it is biochemical. The conditions noted are these: D-serine 5 mM, pH 7.4. The procedure, abridged:
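D-serine substrate at 5 mM (Km), 50 mM sodium phosphate pH 7.4; H2O2 output coupled via 4 U/mL horseradish peroxidase and 50 μM Amplex Red to resorufin fluorescence. Reaction started with enzyme; H2O2 control checked coupling interference; IC50 from inhibition curves.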

Human DAAO, sequence (P14920 whole entry): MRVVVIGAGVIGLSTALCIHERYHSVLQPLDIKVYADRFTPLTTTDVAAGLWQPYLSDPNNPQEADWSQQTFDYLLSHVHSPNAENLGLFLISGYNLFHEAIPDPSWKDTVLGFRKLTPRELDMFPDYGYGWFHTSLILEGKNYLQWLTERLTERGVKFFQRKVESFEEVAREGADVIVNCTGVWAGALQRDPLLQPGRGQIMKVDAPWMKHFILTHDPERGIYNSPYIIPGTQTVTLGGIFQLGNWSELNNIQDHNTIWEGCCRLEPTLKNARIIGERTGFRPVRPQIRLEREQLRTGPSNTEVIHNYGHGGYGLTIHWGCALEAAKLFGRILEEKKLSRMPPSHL

On to `O=C(O)c1cc2c([nH]1)CCC2Cc1cccc(Br)c1` (single isomer, unassigned) [Compound 64, 4-(3-bromobenzyl)-1,4,5,6-tetrahydrocyclopenta[b]pyrrole-2-carboxylic acid], for which the “Cerebellum D-serine at 2 hours” value in assay [1] (dose 60 mg/kg) was “(−) (<2.5 = (−))”. The IC50 against Human DAAO is no more than 0.1 µM.

As to `O=C(O)c1cc2c([nH]1)CCC2Cc1cccc(-c2ccco2)c1` (single isomer, unassigned) [Compound 89, 4-(3-(furan-2-yl)benzyl)-1,4,5,6-tetrahydrocyclopenta[b]pyrrole-2-carboxylic acid], the “Cerebellum D-serine at 2 hours” value in assay [1] (dose 30 mg/kg) is “(−) (<2.5 = (−))”. Moreover, on Human DAAO, the IC50 is no more than 0.1 µM.

On to `O=C(O)c1cc2c([nH]1)CCC2Cc1cccc(F)c1` (centres unmarked) [Compound 54, 4-(3-fluorobenzyl)-1,4,5,6-tetrahydrocyclopenta[b]pyrrole-2-carboxylic acid], for which, in assay [1] (dose 30 mg/kg), the “Cerebellum D-serine at 2 hours” value is recorded as “(+) (2.5-4.9 = (+))” and the “Cerebellum D-serine at 6 hours” value was “(+) (2.5-4.9 = (+))”. On Human DAAO, this compound returned a half-inhibitory concentration (IC50) of no more than 0.1 µM.

`O=C(O)c1cc2c([nH]1)CCC2c1cccc(F)c1` (single isomer, unassigned) [Compound 96, 4-(3-fluorophenyl)-1,4,5,6-tetrahydrocyclopenta[b]pyrrole-2-carboxylic acid]: in assay [1] (dose 30 mg/kg), the “Cerebellum D-serine at 2 hours” value was “(+) (2.5-4.9 = (+))” and the “Cerebellum D-serine at 6 hours” value is on record as “(+) (2.5-4.9 = (+))”. Further, the IC50 against Human DAAO was no more than 0.1 µM.

For the compound `N#Cc1cccc(C2CCc3[nH]c(C(=O)O)cc32)c1` (centres unmarked) [Compound 105, 4-(3-cyanophenyl)-1,4,5,6-tetrahydrocyclopenta[b]pyrrole-2-carboxylic acid], in assay [1] (dose 60 mg/kg), the “Cerebellum D-serine at 2 hours” value is given as “(−) (<2.5 = (−))”. This compound showed an IC50 on Human DAAO of no more than 0.1 µM.

For the compound `Cc1cc(F)ccc1CC1CCc2[nH]c(C(=O)O)cc21` (single isomer, unassigned) [Compound 53, 4-(4-fluoro-2-methylbenzyl)-1,4,5,6-tetrahydrocyclopenta[b]pyrrole-2-carboxylic acid], in assay [1] (dose 10 mg/kg), the “Cerebellum D-serine at 2 hours” value was “(+) (2.5-4.9 = (+))” and the “Cerebellum D-serine at 6 hours” value is recorded as “(−) (<2.5 = (−))”. The IC50 against Human DAAO is no more than 0.1 µM.

Regarding `O=C(O)c1cc2c([nH]1)CCC2Cc1ccc(F)cc1F` (single isomer, unassigned) [Compound 47, 4-(2,4-difluorobenzyl)-1,4,5,6-tetrahydrocyclopenta[b]pyrrole-2-carboxylic acid], in assay [1] (dose 30 mg/kg), the “Cerebellum D-serine at 2 hours” value is on record as “(++) (>5 = (++))” and the “Cerebellum D-serine at 6 hours” value is “(+) (2.5-4.9 = (+))”. Moreover, the concentration for half-maximal inhibition (IC50) at Human DAAO is no more than 0.1 µM.

As for `O=C(O)c1cc2c([nH]1)CCC2Cc1ccc(Cl)c(Cl)c1` (single isomer, unassigned) [Compound 59, 4-(3,4-dichlorobenzyl)-1,4,5,6-tetrahydrocyclopenta[b]pyrrole-2-carboxylic acid], in assay [1] (dose 10 mg/kg), the “Cerebellum D-serine at 2 hours” value is “(+) (2.5-4.9 = (+))” and the “Cerebellum D-serine at 6 hours” value is “(+) (2.5-4.9 = (+))”. This compound also yielded an IC50 against Human DAAO of no more than 0.1 µM.

Turning to `CCCC1CCc2[nH]c(C(=O)O)cc21` (single isomer, unassigned) [Compound 8, 4-propyl-1,4,5,6-tetrahydrocyclopenta[b]pyrrole-2-carboxylic acid], in assay [1] (dose 30 mg/kg), the “Cerebellum D-serine at 2 hours” value is recorded as “(++) (>5 = (++))” and the “Cerebellum D-serine at 6 hours” value is listed as “(+) (2.5-4.9 = (+))”. For the same compound, the IC50 at Human DAAO was no more than 0.1 µM.

Consider `O=C(O)c1cc2c([nH]1)CC1CC21` (single isomer, unassigned) [Compound 140, 1a,4,5,5a-tetrahydro-1H-4-aza-cyclopropa[α]pentalene-3-carboxylic acid], for which, in assay [1] (dose 30 mg/kg), the “Cerebellum D-serine at 2 hours” value is “(++) (>5 = (++))” and the “Cerebellum D-serine at 6 hours” value is listed as “(++) (>5 = (++))”. Also, the IC50 against Human DAAO is no more than 0.1 µM.

As to `O=C(O)c1cc2c([nH]1)CCC2Cc1cccc(Br)c1` (single isomer, unassigned) [Compound 65, 4-(3-bromobenzyl)-1,4,5,6-tetrahydrocyclopenta[b]pyrrole-2-carboxylic acid], in assay [1] (dose 30 mg/kg), the “Cerebellum D-serine at 2 hours” value is “(++) (>5 = (++))” and the “Cerebellum D-serine at 6 hours” value is “(+) (2.5-4.9 = (+))”. The IC50 against Human DAAO was no more than 100 µM.

Regarding `O=C(O)c1cc2c([nH]1)CCC2c1ccc(F)c(F)c1` (centres unmarked) [Compound 97, 4-(3,4-difluorophenyl)-1,4,5,6-tetrahydrocyclopenta[b]pyrrole-2-carboxylic acid], in assay [1] (dose 60 mg/kg), the “Cerebellum D-serine at 2 hours” value is “(+) (2.5-4.9 = (+))” and the “Cerebellum D-serine at 6 hours” value is listed as “(+) (2.5-4.9 = (+))”. Besides, at Human DAAO, the IC50 was no more than 0.1 µM.

Turning to `CCOC(=O)c1[nH]c2c(c1O)CCC2` [Compound 137, ethyl 3-hydroxy-1,4,5,6-tetrahydrocyclopenta[b]pyrrole-2-carboxylate], in assay [1] (dose 30 mg/kg), the “Cerebellum D-serine at 2 hours” value is “(+) (2.5-4.9 = (+))” and the “Cerebellum D-serine at 6 hours” value is given as “(+) (2.5-4.9 = (+))”. For the same compound, at Human DAAO, the IC50 is greater than 100 µM.

In the case of `COc1cccc(CC2CCc3cc(C(=O)O)[nH]c32)c1` (single isomer, unassigned) [Compound 131, 6-(3-methoxybenzyl)-1,4,5,6-tetrahydrocyclopenta[b]pyrrole-2-carboxylic acid], in assay [1] (dose 30 mg/kg), the “Cerebellum D-serine at 2 hours” value was “(+) (2.5-4.9 = (+))” and the “Cerebellum D-serine at 6 hours” value is listed as “(+) (2.5-4.9 = (+))”. Also, at Human DAAO, the IC50 was no more than 0.1 µM.

For the compound `O=C(O)c1cc2c([nH]1)CCC2Cc1ccc(Br)cc1` (single isomer, unassigned) [Compound 62, 4-(4-bromobenzyl)-1,4,5,6-tetrahydrocyclopenta[b]pyrrole-2-carboxylic acid], in assay [1] (dose 30 mg/kg), the “Cerebellum D-serine at 2 hours” value was “(+) (2.5-4.9 = (+))” and the “Cerebellum D-serine at 6 hours” value was “(++) (>5 = (++))”. The compound further registered an IC50 against Human DAAO of no more than 0.1 µM.

Take `O=C(O)c1cc2c([nH]1)C[C@@H]1C[C@H]21` (racemic) [Compound 138, ±(1aS,5aS)-1a,4,5,5a-tetrahydro-1H-4-aza-cyclopropa[α]pentalene-3-carboxylic acid]: in assay [1] (dose 60 mg/kg), the “Cerebellum D-serine at 2 hours” value is given as “(++) (>5 = (++))” and the “Cerebellum D-serine at 6 hours” value is “(++) (>5 = (++))”. Further, at Human DAAO, the IC50 was no more than 0.1 µM.

For `O=C(O)c1cc2c([nH]1)CCC2Cc1ccc2ccccc2c1` (racemic) [Compound 78, 4-(naphthalen-2-ylmethyl)-1,4,5,6-tetrahydrocyclopenta[b]pyrrole-2-carboxylic acid], in assay [1] (dose 30 mg/kg), the “Cerebellum D-serine at 2 hours” value is “(+) (2.5-4.9 = (+))” and the “Cerebellum D-serine at 6 hours” value is “(+) (2.5-4.9 = (+))”. The compound further showed a half-inhibitory concentration (IC50) at Human DAAO of no more than 0.1 µM.

Take `O=C(O)c1cc2c([nH]1)C(Cc1cc(F)cc(Cl)c1)CC2` (centres unmarked) [Compound 124, 6-(3-chloro-5-fluorobenzyl)-1,4,5,6-tetrahydrocyclopenta[b]pyrrole-2-carboxylic acid]: in assay [1] (dose 60 mg/kg), the “Cerebellum D-serine at 2 hours” value is reported as “(−) (<2.5 = (−))” and the “Cerebellum D-serine at 6 hours” value is listed as “(−) (<2.5 = (−))”. Further, at Human DAAO, the IC50 was no more than 0.1 µM.

On to `Cc1cccc(CC2CCc3[nH]c(C(=O)O)cc32)c1` (centres unmarked) [Compound 70, 4-(3-methylbenzyl)-1,4,5,6-tetrahydrocyclopenta[b]pyrrole-2-carboxylic acid], for which, in assay [1] (dose 60 mg/kg), the “Cerebellum D-serine at 2 hours” value is recorded as “(+) (2.5-4.9 = (+))” and the “Cerebellum D-serine at 6 hours” value is on record as “(+) (2.5-4.9 = (+))”. At Human DAAO, this compound had an IC50 of no more than 0.1 µM.

Regarding `O=C(O)c1cc2c([nH]1)CCC2Cc1ccc(F)cc1` (racemic) [Compound 39, 4-(4-fluorobenzyl)-1,4,5,6-tetrahydrocyclopenta[b]pyrrole-2-carboxylic acid], in assay [1] (dose 30 mg/kg), the “Cerebellum D-serine at 2 hours” value is reported as “(+) (2.5-4.9 = (+))” and the “Cerebellum D-serine at 6 hours” value is on record as “(+) (2.5-4.9 = (+))”. On Human DAAO, this compound gave an IC50 of no more than 0.1 µM.

As to `O=C(O)c1cc2c([nH]1)CCC2Cc1ccc(F)c(Cl)c1` (single isomer, unassigned) [Compound 50, 4-(3-chloro-4-fluorobenzyl)-1,4,5,6-tetrahydrocyclopenta[b]pyrrole-2-carboxylic acid], in assay [1] (dose 30 mg/kg), the “Cerebellum D-serine at 2 hours” value is “(++) (>5 = (++))” and the “Cerebellum D-serine at 6 hours” value is on record as “(+) (2.5-4.9 = (+))”.

Consider `COc1cccc(CC2CCc3[nH]c(C(=O)O)cc32)c1` (single isomer, unassigned) [Compound 68, 4-(3-methoxybenzyl)-1,4,5,6-tetrahydrocyclopenta[b]pyrrole-2-carboxylic acid], for which, in assay [1] (dose 30 mg/kg), the “Cerebellum D-serine at 2 hours” value was “(+) (2.5-4.9 = (+))” and the “Cerebellum D-serine at 6 hours” value is “(+) (2.5-4.9 = (+))”. In addition, the IC50 against Human DAAO is no more than 0.1 µM.

In the case of `O=C(O)c1cc2c([nH]1)[C@@H]1C[C@@H]1C2` [Compound 146, (1aR,5aR)-1a,2,5,5a-tetrahydro-1H-2-aza-cyclopropa[α]pentalene-3-carboxylic acid], in assay [1] (dose 60 mg/kg), the “Cerebellum D-serine at 2 hours” value is recorded as “(++) (>5 = (++))” and the “Cerebellum D-serine at 6 hours” value was “(++) (>5 = (++))”. For the same compound, the IC50 against Human DAAO was no more than 0.1 µM.

Regarding `O=C(O)c1cc2c([nH]1)CCC2c1cc(F)cc(F)c1` (single isomer, unassigned) [Compound 100, 4-(3,5-difluorophenyl)-1,4,5,6-tetrahydrocyclopenta[b]pyrrole-2-carboxylic acid], in assay [1] (dose 30 mg/kg), the “Cerebellum D-serine at 2 hours” value was “(+) (2.5-4.9 = (+))” and the “Cerebellum D-serine at 6 hours” value is “(+) (2.5-4.9 = (+))”. This compound had an IC50 against Human DAAO of no more than 0.1 µM.

`O=C(O)c1cc2c([nH]1)CCC2` [Compound 1, 1,4,5,6-tetrahydro-cyclopenta[b]pyrrole-2-carboxylic acid]: in assay [1] (dose 30 mg/kg), the “Cerebellum D-serine at 2 hours” value was “(++) (>5 = (++))” and the “Cerebellum D-serine at 6 hours” value is “(++) (>5 = (++))”. Also, the IC50 against Human DAAO is no more than 0.1 µM.

Usually IC50 stands for the concentration needed to halve the response being measured. Higher therefore signals a need for much substance.
